Measurements taken from patent US7960415B2, “Caspase inhibitors and uses thereof” (Vertex Pharmaceutical Incoporated, priority 2003, dated 2011).

Assays:
[1] = system: IL-1β secretion from human whole blood; assay: Inhibition of IL-1β secretion from whole blood; type: cell-based; conditions: human whole blood diluted 1:2, LPS 5 ng/ml, 18 hours, ELISA
Description: Human blood is freshly drawn from healthy donors and diluted 1:2 in PBS. To 500 μl of diluted blood […] of prediluted test compound in RPMI medium and […] LPS (5 ng/ml final concentration on the plate) are added (LPS, Serotype 0111:B4, Sigma L3012). After stimulation for 18 hours supernatants are collected and assayed for IL-1β levels using the appropriate ELISA kit (R&D systems).

rat cortical neurons = assay: Hypoxia-induced apoptosis of rat cortical neurons; type: cell-based, Wistar rat; conditions: Cortical neurone, 95% N2/5% CO2, Cell Death Detection ELISA (DNA fragmentation)
Description: Cortical neurons are dissociated from Wistar rat embryos (E17) by a modification of the procedure of Rogers et al. 1997, Brain Res. Bulletin, 44:131. Briefly, cerebral cortices are isolated aseptically from 15-20 Wistar rat embryos. A cell suspension is prepared by mincing the cerebral cortices and digesting them with papain. Cells are washed with ovomucoid enzyme inhibitor and DNaseI and plated onto Poly-D lysine coated plates in high glucose DMEM containing 10% heat-inactivated fetal calf serum, L-glutamine, penicillin and streptomycin. The yield of neurons is […] per embryo and they are 80-90% viable as assessed by Trypan blue exclusion.
The neurons are cultured in complete medium at 37° C. in a normal atmosphere for 48 hours prior to the hypoxia experiments. For hypoxia, the normal cell medium is replaced by oxygen-depleted serum-free medium. Cells are incubated in an atmosphere of 95% N2/5% CO2 for various lengths of time. Compounds are dissolved in DMSO at 100 mM then diluted in medium and added to the culture from time=0. The level of apoptosis is measured using a Cell Death Detection ELISA kit (Roche) which detects DNA fragmentation. Plates are read at 405 nm. Controls included cells cultured in aerobic conditions in serum-containing medium (+serum) and cells cultured in aerobic conditions in serum-deprived medium (−serum).

Compound `CC[C@@H](C(=O)N[C@@H](CC(=O)O)C(=O)COc1c(F)c(F)cc(F)c1F)n1cccc(NS(=O)(=O)c2ccccc2)c1=O` [Compound 21, (S,S)-3-[2-(3-Benzenesulfonylamino-2-oxo-2H-pyridin-1-yl)-butyrylamino]-4-oxo-5-(2,3,5,6-tetrafluoro-phenoxy)-pentanoic acid] has an IC50 [1] of 500 to 5000 nM and an IC50 (rat cortical neurons) of 1000 to 10000 nM.
In the case of `CC[C@@H](C(=O)N[C@@H](CC(=O)O)C(=O)COc1c(F)c(F)cc(F)c1F)n1cccc(NC(=O)Cc2ccccc2)c1=O` [Compound 12, (S,S)-4-Oxo-3-[2-(2-oxo-3-phenylacetylamino-2H-pyridin-1-yl)-butyrylamino]-5-(2,3,5,6-tetrafluoro-phenoxy)-pentanoic acid], the IC50 [1] is reported as 500 to 5000 nM and the IC50 (rat cortical neurons) is reported as under 1000 nM.
`CCCNc1cccn([C@@H](CC)C(=O)N[C@@H](CC(=O)O)C(=O)COc2c(F)c(F)cc(F)c2F)c1=O` [Compound 39, (S,S)-4-Oxo-3-[2-(2-oxo-3-propylamino-2H-pyridin-1-yl)-butyrylamino]-5-(2,3,5,6-tetrafluoro-phenoxy)-pentanoic acid] showed an IC50 [1] of 500 to 5000 nM and an IC50 (rat cortical neurons) of under 1000 nM.
For `CC[C@@H](C(=O)N[C@@H](CC(=O)O)C(=O)COc1c(F)c(F)cc(F)c1F)n1cccc(NS(=O)(=O)C(C)C)c1=O` [Compound 20, (S,S)-4-Oxo-3-{2-[2-oxo-3-(propane-2-sulfonylamino)-2H-pyridin-1-yl]-butyrylamino}-5-(2,3,5,6-tetrafluoro-phenoxy)-pentanoic acid], the IC50 [1] was 500 to 5000 nM and the IC50 (rat cortical neurons) was under 1000 nM.
With `CCS(=O)(=O)Nc1cccn([C@H](C(=O)N[C@@H](CC(=O)O)C(=O)COc2c(F)c(F)cc(F)c2F)C(C)C)c1=O` [Compound 24, (S,S)-3-[2-(3-Ethanesulfonylamino-2-oxo-2H-pyridin-1-yl)-3-methyl-butyrylamino]-4-oxo-5-(2,3,5,6-tetrafluoro-phenoxy)-pentanoic acid] the IC50 (rat cortical neurons) was 1000 to 10000 nM.
For `CCNC(=O)Nc1cccn([C@@H](CC)C(=O)N[C@@H](CC(=O)O)C(=O)COc2c(F)c(F)cc(F)c2F)c1=O` [Compound 14, (S,S)-3-{2-[3-(3-Ethyl-ureido)-2-oxo-2H-pyridin-1-yl]-butyrylamino}-4-oxo-5-(2,3,5,6-tetrafluoro-phenoxy)-pentanoic acid], the IC50 [1] was under 500 nM and the IC50 (rat cortical neurons) was 1000 to 10000 nM.
In the case of `CC[C@@H](C(=O)N[C@@H](CC(=O)O)C(=O)COc1c(F)c(F)cc(F)c1F)n1cccc(NC(=O)N2CCCC2)c1=O` [Compound 16, (S,S)-4-Oxo-3-(2-{2-oxo-3-[(pyrrolidine-1-carbonyl)-amino]-2H-pyridin-1-yl}-butyrylamino)-5-(2,3,5,6-tetrafluoro-phenoxy)-pentanoic acid], the IC50 [1] is reported as 500 to 5000 nM and the IC50 (rat cortical neurons) is reported as 1000 to 10000 nM.
With `CC(C)[C@@H](C(=O)N[C@@H](CC(=O)O)C(=O)COc1c(F)c(F)cc(F)c1F)n1cccc(NC(=O)Cc2ccccc2)c1=O` [Compound 23, (S,S)-3-[3-Methyl-2-(2-oxo-3-phenylacetylamino-2H-pyridin-1-yl)-butyrylamino]-4-oxo-5-(2,3,5,6-tetrafluoro-phenoxy)-pentanoic acid] the IC50 [1] was 500 to 5000 nM.
`CC[C@@H](C(=O)N[C@@H](CC(=O)O)C(=O)COc1c(F)c(F)cc(F)c1F)n1cccc(NC(=O)N(CC)CC)c1=O` [Compound 15, (S,S)-3-{2-[3-(3,3-Diethyl-ureido)-2-oxo-2H-pyridin-1-yl]-butyrylamino}-4-oxo-5-(2,3,5,6-tetrafluoro-phenoxy)-pentanoic acid] gave an IC50 [1] of 500 to 5000 nM and an IC50 (rat cortical neurons) of under 1000 nM.
`CC[C@@H](C(=O)N[C@@H](CC(=O)O)C(=O)COc1c(F)c(F)cc(F)c1F)n1cccc(NC(=O)c2cccnc2)c1=O` [Compound 9, (S,S)-4-Oxo-3-(2-{2-oxo-3-[(pyridine-3-carbonyl)-amino]-2H-pyridin-1-yl}-butyrylamino)-5-(2,3,5,6-tetrafluoro-phenoxy)-pentanoic acid] was tested, and the IC50 [1] was 500 to 5000 nM and the IC50 (rat cortical neurons) was 1000 to 10000 nM.
